molecular target: human GPBAR1 receptor (Homo sapiens (Human), UniProt Q8TDU6); experiment: functional cAMP assay in CHO-dhfr(minus) cells expressing human GPBAR1 receptors; assay type: cell-based; settings: CHO-dhfr(minus) cells expressing human GPBAR1, 30 min at 30° C.
How it was run: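 CHO-dhfr- cells were transfected with human GPBAR1, and a clone was chosen by cAMP response to lithocholic acid. EC50 values come from the cAMP read-out; specificity was checked in non-transfected CHO cells.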

human GPBAR1 receptor, sequence (Q8TDU6 whole entry): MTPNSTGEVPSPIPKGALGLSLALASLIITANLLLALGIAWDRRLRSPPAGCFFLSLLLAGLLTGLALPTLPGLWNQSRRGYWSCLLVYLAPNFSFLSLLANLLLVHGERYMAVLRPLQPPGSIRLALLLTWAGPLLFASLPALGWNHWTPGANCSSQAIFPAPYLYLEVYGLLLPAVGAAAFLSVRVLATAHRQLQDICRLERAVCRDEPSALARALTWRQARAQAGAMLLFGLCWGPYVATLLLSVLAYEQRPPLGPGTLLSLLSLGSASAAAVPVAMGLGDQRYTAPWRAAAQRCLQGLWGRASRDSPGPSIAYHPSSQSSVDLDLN

Row | SMILES | EC50 [nM]
1 | CNc1cc(-c2ccccc2C)c(N(C)C(=O)c2cc(C(F)(F)F)cc(C(F)(F)F)c2)cn1 [Example 15, N-Methyl-N-(6-methylamino-4-o-tolyl-pyridin-3-yl)-3,5-bis-trifluoromethyl-benzamide] | 323
2 | COc1cc(F)ccc1-c1ccncc1N(CCS(C)(=O)=O)C(=O)c1cc(C(F)(F)F)cc(S(C)(=O)=O)c1 [Example 306, N-[4-(4-Fluoro-2-methoxy-phenyl)-pyridin-3-yl]-3-methanesulfonyl-N-(2-methanesulfonyl-ethyl)-5-trifluoromethyl-benzamide] | 190
3 | COc1cc(F)ccc1-c1ccncc1N(C)C(=O)c1cc(SC2CN(C(=O)OC(C)(C)C)C2)cc(C(F)(F)F)c1 [Example 268, 3-(3-{[4-(4-Fluoro-2-methoxy-phenyl)-pyridin-3-yl]-methyl-carbamoyl}-5-trifluoromethyl-phenylsulfanyl)-azetidine-1-carboxylic acid tert-butyl ester] | 768
4 | COc1cc(F)ccc1-c1ccncc1N(C)C(=O)c1cc(C(F)(F)F)cc(S(=O)(=O)CCO)c1 [Example 218, N-[4-(4-Fluoro-2-methoxy-phenyl)-pyridin-3-yl]-3-(2-hydroxy-ethanesulfonyl)-N-methyl-5-trifluoromethyl-benzamide] | 73
5 | Cc1ccc(C(=O)O)cc1-c1ccncc1N(C)C(=O)c1cc(C(F)(F)F)cc(C(F)(F)F)c1 [Example 84, 3-{3-[(3,5-Bis-trifluoromethyl-benzoyl)-methyl-amino]-pyridin-4-yl}-4-methyl-benzoic acid] | 2020
6 | CN(C(=O)c1cc(C(F)(F)F)cc(S(C)(=O)=O)c1)c1cnccc1-c1ccccc1OC1COC1 [Example 272, 3-Methanesulfonyl-N-methyl-N-{4-[2-(oxetan-3-yloxy)-phenyl]-pyridin-3-yl}-5-trifluoromethyl-benzamide] | 64
7 | O=C(c1cc(C(F)(F)F)nc(C(F)(F)F)c1)N(CC(F)F)c1cnccc1-c1ccccc1F [Example 155, N-(2,2-Difluoro-ethyl)-N-[4-(2-fluoro-phenyl)-pyridin-3-yl]-2,6-bis-trifluoromethyl-isonicotinamide] | 38
8 | COc1cc(F)ccc1-c1cc(C)ncc1N(C)C(=O)c1cc(SCCCCC(=O)O)cc(C(F)(F)F)c1 [Example 312, 5-(3-{[4-(4-Fluoro-2-methoxy-phenyl)-6-methyl-pyridin-3-yl]-methyl-carbamoyl}-5-trifluoromethyl-phenylsulfanyl)-pentanoic acid] | 2420
9 | COc1cc(F)ccc1-c1ccncc1N(CC(F)(F)F)C(=O)c1cc(C(F)(F)F)nc(C(F)(F)F)c1 [Example 147, N-[4-(4-Fluoro-2-methoxy-phenyl)-pyridin-3-yl]-N-(2,2,2-trifluoro-ethyl)-2,6-bis-trifluoromethyl-isonicotinamide] | 18
10 | CS(=O)(=O)c1cc(C(=O)N(CC#N)c2cnccc2-c2ccccc2OC(F)(F)F)cc(C(F)(F)F)c1 [Example 311, N-Cyanomethyl-3-methanesulfonyl-N-[4-(2-trifluoromethoxy-phenyl)-pyridin-3-yl]-5-trifluoromethyl-benzamide] | 81
11 | COc1ncc(Cl)cc1-c1ccncc1N(C)C(=O)c1cc(C(F)(F)F)cc(C(F)(F)F)c1 [Example 45, N-(5-Chloro-2-methoxy-[3,4′]bipyridinyl-3′-yl)-N-methyl-3,5-bis-trifluoromethyl-benzamide] | 302
12 | Cc1ccccc1-c1ccncc1N(CCC#N)C(=O)c1cc(C(F)(F)F)cc(C(F)(F)F)c1 [Example 165, N-(2-Cyano-ethyl)-N-(4-o-tolyl-pyridin-3-yl)-3,5-bis-trifluoromethyl-benzamide] | 153
13 | Cc1ccccc1-c1ccncc1N(C)C(=O)c1cccc(Cl)c1 [Example 3, N-Methyl-N-(4-o-tolyl-pyridin-3-yl)-3-chloro-benzamide] | 902
14 | CC(C)N(C(=O)c1cc(C(F)(F)F)cc(C(F)(F)F)c1)c1cnccc1-c1ccccc1Cl [Example 126, N-[4-(2-Chloro-phenyl)-pyridin-3-yl]-N-isopropyl-3,5-bis-trifluoromethyl-benzamide] | 620
15 | COc1ncccc1-c1ccncc1N(CC(F)(F)F)C(=O)c1cc(C(F)(F)F)cc(C(F)(F)F)c1 [Example 135, N-(2-Methoxy-[3,4′]bipyridinyl-3′-yl)-N-(2,2,2-trifluoro-ethyl)-3,5-bis-trifluoromethyl-benzamide] | 91
16 | COc1cc(F)ccc1-c1ccncc1N(CC(F)F)C(=O)c1cc(C(F)(F)F)nc(C(F)(F)F)c1 [Example 153, N-(2,2-Difluoro-ethyl)-N-[4-(4-fluoro-2-methoxy-phenyl)-pyridin-3-yl]-2,6-bis-trifluoromethyl-isonicotinamide] | 19
17 | CN(C(=O)c1cc(C(F)(F)F)cc(C(F)(F)F)c1)c1cnccc1C1=CCOCC1 [Example 166, N-[4-(3,6-Dihydro-2H-pyran-4-yl)-pyridin-3-yl]-N-methyl-3,5-bis-trifluoromethyl-benzamide] | 1780
18 | COc1cc(F)ccc1-c1ccncc1N(CC1CCCCO1)C(=O)c1cc(C(F)(F)F)cc(S(C)(=O)=O)c1 (single isomer, unassigned; (-)) [Example 290, (−)-N-[4-(4-Fluoro-2-methoxy-phenyl)-pyridin-3-yl]-3-methanesulfonyl-N-[1-(tetrahydro-pyran-2-yl)methyl]-5-trifluoromethyl-benzamide] | 1740
19 | COc1cc(F)ccc1-c1ccncc1N(C)C(=O)c1cc(SCCCC(=O)O)cc(C(F)(F)F)c1 [Example 239, 4-(3-{[4-(4-Fluoro-2-methoxy-phenyl)-pyridin-3-yl]-methyl-carbamoyl}-5-trifluoromethyl-phenylsulfanyl)-butyric acid] | 508
20 | Cc1ccccc1-c1ccncc1N(C)C(=O)c1cc(N)cc(C(F)(F)F)c1 [Example 164, 3-amino-N-methyl-N-(4-o-tolylpyridin-3-yl)-5-(trifluoromethyl)benzamide] | 1700
21 | O=C(c1cc(C(F)(F)F)cc(C(F)(F)F)c1)N(c1cnccc1-c1ccccc1Cl)C1CC1 [Example 124, N-[4-(2-Chloro-phenyl)-pyridin-3-yl]-N-cyclopropyl-3,5-bis-trifluoromethyl-benzamide] | 1980
22 | COC(=O)CCSc1cc(C(=O)N(C)c2cnccc2-c2ccc(F)cc2OC)cc(C(F)(F)F)c1 [Example 225, 3-(3-{[4-(4-Fluoro-2-methoxy-phenyl)-pyridin-3-yl]-methyl-carbamoyl}-5-trifluoromethyl-phenylsulfanyl)-propionic acid methyl ester] | 241
23 | COc1c(-c2ccncc2N(C)C(=O)c2cc(C(F)(F)F)cc(C(F)(F)F)c2)ccc(F)c1F [Example 60, N-[4-(3,4-Difluoro-2-methoxy-phenyl)-pyridin-3-yl]-N-methyl-3,5-bis-trifluoromethyl-benzamide] | 114

Further compounds by falling EC50, results first:

Row | EC50 [nM] | SMILES
24 | 2740 | Cc1ccccc1-c1ccncc1N(C)C(=O)c1ccc(C(F)(F)F)cc1 [Example 90, N-Methyl-N-(4-o-tolyl-pyridin-3-yl)-4-trifluoromethyl-benzamide]
25 | 1480 | CS(=O)(=O)CCN(C(=O)c1cc(C(F)(F)F)cc(S(C)(=O)=O)c1)c1cnccc1-c1ccccc1Cl [Example 288, N-[4-(2-Chloro-phenyl)-pyridin-3-yl]-3-methanesulfonyl-N-(2-methanesulfonyl-ethyl)-5-trifluoromethyl-benzamide]
26 | 396 | COc1ncccc1-c1ccncc1N(CC(F)(F)F)C(=O)c1cc(C(F)(F)F)cc(S(C)(=O)=O)c1 [Example 142, 3-Methanesulfonyl-N-(2-methoxy-[3,4′]bipyridinyl-3′-yl)-N-(2,2,2-trifluoro-ethyl)-5-trifluoromethyl-benzamide]
27 | 335 | COc1cc(F)ccc1-c1ccncc1N(CC1CCCO1)C(=O)c1cc(C(F)(F)F)cc(S(C)(=O)=O)c1 (single isomer, unassigned; (+)) [Example 232, (+)-N-[4-(4-Fluoro-2-methoxy-phenyl)-pyridin-3-yl]-3-methanesulfonyl-N-[1-(tetrahydro-furan-2-yl)methyl]-5-trifluoromethyl-benzamide]
28 | 318 | COc1cc(F)ccc1-c1ccncc1N(CC1(C)COC1)C(=O)c1cc(C(F)(F)F)nc(C(F)(F)F)c1 [Example 207, N-[4-(4-Fluoro-2-methoxy-phenyl)-pyridin-3-yl]-N-(3-methyl-oxctan-3-ylmethyl)-2,6-bis-trifluoromethyl-isonicotinamide]
29 | 124 | COc1cc(F)c(F)cc1-c1ccncc1N(CC(F)(F)F)C(=O)c1cc(C(F)(F)F)cc(S(=O)(=O)N(C)C)c1 [Example 140, N-[4-(4,5-Difluoro-2-methoxy-phenyl)-pyridin-3-yl]-3-dimethylsulfamoyl-N-(2,2,2-trifluoro-ethyl)-5-trifluoromethyl-benzamide]
30 | 70 | Cc1cc(C(=O)N(C)c2cnccc2-c2ccccc2C)cc(C(F)(F)F)c1 [Example 108, 3,N-Dimethyl-N-(4-o-tolyl-pyridin-3-yl)-5-trifluoromethyl-benzamide]
31 | 43 | CN(C(=O)c1cc(C(F)(F)F)cc(C(F)(F)F)c1)c1cnccc1-c1cccnc1OCC(F)(F)F [Example 106, N-Methyl-N-[2-(2,2,2-trifluoro-ethoxy)-[3,4′]bipyridinyl-3′-yl]-3,5-bis-trifluoromethyl-benzamide]
32 | 42 | CS(=O)(=O)c1cc(C(=O)N(Cc2ncco2)c2cnccc2-c2ccccc2Cl)cc(C(F)(F)F)c1 [Example 294, N-[4-(2-Chloro-phenyl)-pyridin-3-yl]-3-methanesulfonyl-N-oxazol-2-ylmethyl-5-trifluoromethyl-benzamide]
33 | 22 | Cc1ccccc1-c1ccncc1N(C)C(=O)c1cc(C(F)(F)F)cc(C(F)(F)F)c1 [Example 1, N-Methyl-N-(4-o-tolyl-pyridin-3-yl)-3,5-bis-trifluoromethyl-benzamide]
34 | 5 | COc1cc(F)ccc1-c1ccncc1N(C)C(=O)c1cc(C(F)(F)F)cc(S(=O)(=O)N2CC3(COC3)C2)c1 [Example 305, N-[4-(4-Fluoro-2-methoxy-phenyl)-pyridin-3-yl]-N-methyl-3-(2-oxa-6-aza-spiro[3.3]heptane-6-sulfonyl)-5-trifluoromethyl-benzamide]
